The term IC50 denotes the concentration that inhibits the measured activity by half.

In patent US11976083B2, “Inhibitors of peptidylarginine deiminases” (Gilead Sciences, Inc., priority 2020, dated 2024) one finds IC50 data, which are given here for 17 compounds.

Each structure is given as a SMILES string.

This assay addresses T1, human PAD4 (Homo sapiens, UniProt Q9UM07).
T1 construct: human PAD4 (NM_012387), A2-P663, was PCR amplified; His-SUMO (N, cleaved yes); made in house; host or cells: E. coli BL21(DE3)
As to the kind of experiment: In vitro PAD4 BAEE biochemical assay. The settings on record: BAEE substrate 3 mM, 5 nM PAD4, 2 mM calcium chloride; geometric mean of multiple experiments. Put shortly: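 Fluorescence read-out (ex 405/em 535 nm) of isoindole formed from ammonia, o-phthalaldehyde and DTT after EDTA stop. Reaction: 5 nM PAD4, 2 mM CaCl2, 3 mM BAEE, 2 h, 25 °C, after 30 min enzyme–compound preincubation. Normalised to BB-Cl-Amidine (50 µM) and DMSO controls.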

T1 sequence (Q9UM07 2-663): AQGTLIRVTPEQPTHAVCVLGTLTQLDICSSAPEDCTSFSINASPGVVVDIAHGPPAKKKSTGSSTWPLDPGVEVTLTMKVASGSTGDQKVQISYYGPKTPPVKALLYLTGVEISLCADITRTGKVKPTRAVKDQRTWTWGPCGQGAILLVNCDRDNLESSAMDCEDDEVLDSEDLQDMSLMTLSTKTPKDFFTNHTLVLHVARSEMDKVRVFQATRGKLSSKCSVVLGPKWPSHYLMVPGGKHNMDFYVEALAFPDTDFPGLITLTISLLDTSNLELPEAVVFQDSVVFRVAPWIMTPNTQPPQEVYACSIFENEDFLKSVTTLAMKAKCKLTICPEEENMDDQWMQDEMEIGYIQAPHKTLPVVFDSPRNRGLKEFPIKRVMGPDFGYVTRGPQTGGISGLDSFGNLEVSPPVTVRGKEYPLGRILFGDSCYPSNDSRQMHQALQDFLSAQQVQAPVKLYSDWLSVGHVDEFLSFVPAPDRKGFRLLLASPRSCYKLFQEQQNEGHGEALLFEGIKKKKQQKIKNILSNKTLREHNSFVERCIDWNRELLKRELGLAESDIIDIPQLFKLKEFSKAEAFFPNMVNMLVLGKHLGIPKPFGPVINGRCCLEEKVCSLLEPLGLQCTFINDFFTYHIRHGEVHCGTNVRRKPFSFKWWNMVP

Consider `COc1cc(C(=O)N2CC[C@@H](F)[C@@H](N)C2)cc2nc(-c3cc4ccc5nc4n3CCCCCCC(C)(C)C(=O)N[C@@H]5C)n(C)c12` [Example 276, (11~{R})-17-[5-[(3~{S},4~{R})-3-amino-4-fluoro-piperidine-1-carbonyl]-7-methoxy-1-methyl-benzimidazol-2-yl]-8,8,11-trimethyl-1,10,19-triazatricyclo[10.5.2.0^{15,18}]nonadeca-12(19),13,15(18),16-tetraen-9-one], for which the IC50 was 343 nM.

On to `COc1cc(C(=O)N2C[C@H](N)CCN2C)cc2nc(-c3cc4ccc5nc4n3CCCCCc3ccccc3C(=O)N[C@@H]5C)n(C)c12` [Example 44, (2~{R})-17-[5-[(5~{R})-5-amino-2-methyl-hexahydropyridazine-1-carbonyl]-7-methoxy-1-methyl-benzimidazol-2-yl]-2-methyl-3,16,22-triazatetracyclo[14.5.2.0^{5,10}.0^{19,23}] tricosa-1(22),5,7,9,17,19(23),20-heptaen-4-one], for which the IC50 came out at 64 nM.

Turning to `COc1cc(C(=O)N2[C@H]3CC[C@@H]2[C@H](N)C3)cc2nc(-c3cc4ccc5cc4n3CCCCCCC3(CC3)C(=O)N[C@@H]5C)n(C)c12` [Example 221, (11~{R})-17-[5-[(1~{R},2~{R},4~{S})-2-amino-7-azabicyclo[2.2.1]heptane-7-carbonyl]-7-methoxy-1-methyl-benzimidazol-2-yl]-11-methyl-spiro[1,10-diazatricyclo[10.5.2.0^{15,18}]nonadeca-12(19),13,15(18),16-tetraene-8,1′-cyclopropane]-9-one], the IC50 was 32 nM.

For the compound `C[C@H]1NC(=O)[C@@H]2C[C@H]2CCCCCn2c(-c3nc4cc(C(=O)N[C@H]5CNCC[C@@H]5F)c(F)cc4n3C)cc3ccc1nc32` [Example 242, 6-fluoro-~{N}-[(3~{S},4~{S})-4-fluoro-3-piperidyl]-1-methyl-2-[(2~{R},5~{R},7~{R})-2-methyl-4-oxo-3,13,19-triazatetracyclo[11.5.2.0^{5,7}.0^{16,20}]icosa-1(19),14,16(20),17-tetraen-14-yl]benzimidazole-5-carboxamide], the IC50 was 31 nM.

With `COc1cc(C(=O)N2CCC[C@@H](N)C2)cc2nc(-c3cc4ccc5nc4n3C[C@@H]3C[C@H]3COC[C@H](C)C(=O)N[C@@H]5C)n(C)c12` [Example 266, (5~{R},9~{S},12~{R})-18-[5-[(3~{R})-3-aminopiperidine-1-carbonyl]-7-methoxy-1-methyl-benzimidazol-2-yl]-9,12-dimethyl-7-oxa-1,11,20-triazatetracyclo[11.5.2.0^{3,5}.0^{16,19}] icosa-13(20),14,16(19),17-tetraen-10-one], the IC50 was 153 nM.

Take `COc1cc(C(=O)N2[C@H]3CC[C@@H]2[C@H](N)C3)cc2nc(-c3cc4ccc5nc4n3C[C@H]3C[C@H]3CC[C@H]3C[C@@H]3C(=O)N[C@@H]5C)n(C)c12` [Example 143, (3~{S),5~{R},8~{S},10~{S},13~{R})-19-[5-[(1~{R},2~{R},4~{S})-2-amino-7-azabicyclo[2.2.1]heptane-7-carbonyl]-7-methoxy-1-methyl-benzimidazol-2-yl]-13-methyl-1,12,21-triazapentacyclo[12.5.2.0^{3,5}.0^{8,10}.0^ {17,20}]henicosa-14(21),15,17(20),18-tetraen-11-one]: the IC50 was determined as 158 nM.

Turning to `COc1cc(C(=O)N2C[C@H](N)[C@@H]3CC[C@H]2C3)cc2nc(-c3cc4ccc5nc4n3CCCCCC[C@@](C)(F)C(=O)N[C@@H]5C)n(C)c12` [Example 948, (8~{R},11~{R})-17-[5-[(1~{S},4~{R},5~{R})-4-amino-2-azabicyclo[3.2.1]octane-2-carbonyl]-7-methoxy-1-methyl-benzimidazol-2-yl]-8-fluoro-8,11-dimethyl-1,10,19-triazatricyclo[10.5.2.0^ {15,18}]nonadeca-12(19), 13,15(18),16-tetraen-9-one], the IC50 came out at 28 nM.

With `COc1cc(C(=O)N2CC[C@@H](OC)[C@@H](N)C2)cc2nc(-c3cc4ccc5nc4n3CC(F)(F)CCCOC(C)(C)C(=O)N[C@@H]5C)n(C)c12` [Example 588, (11~{R})-17-[5-[(3~{S},4~ {R})-3-amino-4-methoxy-piperidine-1-carbonyl]-7-methoxy-1-methyl-benzimidazol-2-yl]-3,3-difluoro-8,8,11-trimethyl-7-oxa-1,10,19-triazatricyclo[10.5.2.0^ {15,18}]nonadeca-12(19),13,15(18), 16-tetraen-9-one], the IC50 turned out to be 193 nM.

Regarding `C[C@H]1NC(=O)[C@@](F)(c2cccc(Cl)n2)CCCCCCn2c(-c3nc4cc(C(=O)N5C[C@H](N)[C@@H]6CC[C@H]5C6)cc(F)c4n3C3CC3)cc3ccc1nc32` [Example 480, (8~{S},11~{R})-17-[5-[(1~{S},4~{R},5~{R})-4-amino-2-azabicyclo[3.2.1]octane-2-carbonyl]-1-cyclopropyl-7-fluoro-benzimidazol-2-yl]-8-(6-chloro-2-pyridyl)-8-fluoro-11-methyl-1,10,19-triazatricyclo[10.5.2.0^{15,18}]nonadeca-12(19),13,15(18),16-tetraen-9-one], the IC50 is 134 nM.

As for `CO[C@H]1C[C@@H]1n1c(-c2cc3ccc4nc3n2CC(F)(F)CCC[C@@H]2C[C@H]2C(=O)N[C@@H]4C)nc2cc(C(=O)N3CCC[C@@H](N)[C@H]3C)cc(F)c21` [Example 802, (2~{R},5~{R},7~{R})-14-[5-[(2~{R},3~{R})-3-amino-2-methyl-piperidine-1-carbonyl]-7-fluoro-1-[(1~{S},2~{S})-2-methoxycyclopropyl]benzimidazol-2-yl]-11,11-difluoro-2-methyl-3,13,19-triazatetracyclo [11.5.2.0^{5,7}.0^{16,20}] icosa-1(18),14,16,19-tetraen-4-one], the IC50 was 22 nM.

Take `COc1cc(C(=O)N2[C@H]3CC[C@@H]2[C@H](N)[C@H](O)C3)cc2nc(-c3cc4ccc5nc4n3CCCCCCC3(CC3)C(=O)N[C@@H]5C)n(C)c12` [Example 207, (11~{R})-17-[5-[(1~{R},2~{S},3~{R},5~{S})-2-amino-3-hydroxy-8-azabicyclo[3.2.1]octane-8-carbonyl]-7-methoxy-1-methyl-benzimidazol-2-yl]-11-methyl-spiro[1,10,19-triazatricyclo[10.5.2.0^{15,18}]nonadeca-12(19),13,15(18),16-tetraene-8,1′-cyclopropane]-9-one]: the IC50 was found to be 187 nM.

Regarding `COc1cc(C(=O)N2C[C@H]3CC[C@@H]2[C@@H]3N)cc2nc(-c3cc4ccc5nc4n3CC(F)(F)CCC[C@@H]3C[C@H]3C(=O)N[C@@H]5C)n(C)c12` [Example 853, (2~{R},5~{R},7~{R})-14-[5-[(1~{R},4~{R},7~{R})-7-amino-2-azabicyclo[2.2.1]heptane-2-carbonyl]-7-methoxy-1-methyl-benzimidazol-2-yl]-11,11-difluoro-2-methyl-3,13,19-triazatetracyclo[11.5.2.0^ {5,7}.0^{16,20}]icosa-1(19), 14,16(20),17-tetraen-4-one], the IC50 was 48 nM.

With `C[C@H]1NC(=O)[C@@H]2C[C@H]2CCCCCn2c(-c3nc4cc(C(=O)N[C@H]5CNCC[C@@H]5F)c(F)cn4c3C3CC3)cc3ccc1nc32` [Example 580, 3-cyclopropyl-6-fluoro-~ {N}-[(3~{S},4~{S})-4-fluoro-3-piperidyl]-2-[(2~{R},5~{R},7~{R})-2-methyl-4-oxo-3,13,19-triazatetracyclo[11.5.2.0^ {5,7}.0^{16,20}]icosa-1(19),14,16(20),17-tetraen-14-yl]imidazo[1,2-a] pyridine-7-carboxamide], the IC50 was 24 nM.

For the compound `COc1cc(C(=O)N[C@H]2CNCC[C@@H]2F)cc2nc(-c3cc4ccc5nc4n3CCCCCOC(C)(C)C(=O)N[C@@H]5C)n(C)c12` [Example 19, ~{N}-[(3~{S},4~{S})-4-fluoro-3-piperidyl]-7-methoxy-1-methyl-2-[(11~{R})-8,8,11-trimethyl-9-oxo-7-oxa-1,10,19-triazatricyclo[10.5.2.0^{15,18}]nonadeca-12(19),13,15(18),16-tetraen-17-yl]benzimidazole-5-carboxamide], the IC50 stood at 76 nM.

Consider `C[C@H]1NC(=O)C(C)(C)CCCCCCn2c(-c3nc4cc(C(=O)N[C@H]5CNCC[C@@H]5F)c(F)cc4n3C(F)F)cc3ccc1nc32` [Example 626, 1-(difluoromethyl)-6-fluoro-˜{N}-[(3˜{S},4˜{S})-4-fluoro-3-piperidyl]-2-[(11˜{R})-8,8,11-trimethyl-9-oxo-1,10,19-triazatricyclo[10.5.2.0^{15,18}]nonadeca-12(19),13,15(18),16-tetraen-17-yl]benzimidazole-5-carboxamide], for which the IC50 stood at 48 nM.

Take `C[C@H]1NC(=O)[C@@H]2[C@@H](CCCC(F)(F)Cn3c(-c4nc5cc(C(=O)N[C@H]6CNCC[C@@H]6F)c(F)cc5n4C4CC4)cc4ccc1nc43)C2(F)F` [Example 390, 1-cyclopropyl-6-fluoro-~{N}-[(3~{S},4~{S})-4-fluoro-3-piperidyl]-2-[(2~{R},5~{S},7~{R})-6,6,11,11-tetrafluoro-2-methyl-4-oxo-3,13,19-triazatetracyclo[11.5.2.0^{5,7}.0^{16,20}]icosa-1(19),14,16(20),17-tetraen-14-yl]benzimidazole-5-carboxamide]: the IC50 worked out at 88 nM.

As to `COc1cc(C(=O)N2C[C@H](N)[C@@H]3CC[C@H]2C3)cc2nc(-c3cc4ccc5nc4n3CCCCC[C@H]3[C@H](C(=O)N[C@@H]5C)C3(F)F)c(C)n12` [Example 929, (2~{R},5~{R},7~{S})-14-[7-[(1~{S},4~{R},5~{R})-4-amino-2-azabicyclo[3.2.1]octane-2-carbonyl]-5-methoxy-3-methyl-imidazo[1,2-a]pyridin-2-yl]-6,6-difluoro-2-methyl-3,13,19-triazatetracyclo[11.5.2.0^ {5,7}.0^{16,20}]icosa-1(19), 14,16(20),17-tetraen-4-one], the IC50 was found to be 18 nM.
